From ChEMBL document CHEMBL1151046, “Selective cyclooxygenase inhibitors: Novel 4-spiro 1,2-diarylcyclopentenes are potent and orally active cox-2 inhibitors” (Bioorg Med Chem Lett, 1995)

Columns and labels:
physchem = conditions: octanol/water
Rattus norvegicus [1] = species: Rattus norvegicus; assay: animal or person; format: functional; conditions: po
Rattus norvegicus [2] = species: Rattus norvegicus; format: functional, Stomach
[3] = target: Prostaglandin G/H synthase 1 (Homo sapiens, UniProt P23219)
Rattus norvegicus [4] = species: Rattus norvegicus; assay: animal or person; conditions: po, read-out: Inhibition

Chain of Prostaglandin G/H synthase 1 (P23219 whole entry): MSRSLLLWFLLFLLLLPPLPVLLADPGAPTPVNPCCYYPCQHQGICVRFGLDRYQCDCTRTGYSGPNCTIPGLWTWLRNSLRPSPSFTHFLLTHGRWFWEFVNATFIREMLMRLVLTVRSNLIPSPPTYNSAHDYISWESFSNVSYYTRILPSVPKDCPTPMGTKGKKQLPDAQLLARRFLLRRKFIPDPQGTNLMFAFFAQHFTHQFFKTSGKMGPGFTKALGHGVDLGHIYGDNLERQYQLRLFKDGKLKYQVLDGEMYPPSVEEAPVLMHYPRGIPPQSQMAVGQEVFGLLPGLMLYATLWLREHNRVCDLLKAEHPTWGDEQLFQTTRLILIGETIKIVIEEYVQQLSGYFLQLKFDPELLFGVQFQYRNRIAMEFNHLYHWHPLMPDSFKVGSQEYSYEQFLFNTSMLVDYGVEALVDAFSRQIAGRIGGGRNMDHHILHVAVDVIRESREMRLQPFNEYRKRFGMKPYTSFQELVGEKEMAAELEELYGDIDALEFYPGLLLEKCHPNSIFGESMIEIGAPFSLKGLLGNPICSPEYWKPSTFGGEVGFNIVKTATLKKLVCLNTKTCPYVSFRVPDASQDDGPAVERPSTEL

logP (physchem) | SMILES | inhibition in vivo at 30 mg/kg (Rattus norvegicus [1]) | further results
4.1 | NS(=O)(=O)c1ccc(C2=C(c3ccc(F)cc3)CC3(CCC3)C2)cc1 | 37% | 
4 | NS(=O)(=O)c1ccc(C2=C(c3ccc(F)cc3)CC3(CC3)C2)cc1 | 60% | Gastric lesions (Rattus norvegicus [2]): 10
5.4 | CS(=O)(=O)c1ccc(C2=C(c3ccc(F)cc3)CC3(CCCC3)C2)cc1 |  | 
 | CS(=O)(=O)c1ccc(C2=C(c3ccc(F)cc3)CC3(CCCCC3)C2)cc1 |  | IC50 [3]: > 100 µM
 | CC1(C)CC(c2ccc(F)cc2)=C(c2ccc(S(C)(=O)=O)cc2)C1 |  | inhibition in vivo at 30 mg/kg (Rattus norvegicus [4]): 50%
4.9 | CS(=O)(=O)c1ccc(C2=C(c3ccc(F)cc3)CC3(CCC3)C2)cc1 | 23% | 
4.5 | CS(=O)(=O)c1ccc(C2=C(c3ccc(F)cc3)CC3(CC3)C2)cc1 | 38% | IC50 [3]: 5.4 µM
 | COc1ccc2c(c1)c(CC(=O)O)c(C)n2C(=O)c1ccc(Cl)cc1 [INDOMETHACIN] | 66% | 
 | CS(=O)(=O)Nc1ccc([N+](=O)[O-])cc1OC1CCCCC1 [NS-398] | 60% | 
